Results: PMC10895697 (JAC-Antimicrobial Resistance, 2024)
Converted amounts (≈) assume the structure as drawn.

Legend:
[1] = tested on: S. aureus 1815 (MRSA); test: MIC/MBC by broth microdilution reference method; format: cell-based, Staphylococcus aureus; settings: Staphylococcus aureus, strain 1815, MRSA gentamicin and erythromycin resistant, broth microdilution
[2] = tested on: S. aureus ATCC 29213 (MSSA reference strain); test: MIC/MBC by broth microdilution reference method; format: cell-based, Staphylococcus aureus; settings: Staphylococcus aureus, reference strain ATCC 29213, MSSA, broth microdilution
[3] = tested on: S. aureus 1334 (MSSA); test: MIC/MBC by broth microdilution reference method; format: cell-based, Staphylococcus aureus; settings: Staphylococcus aureus, strain 1334, MSSA multi-susceptible, broth microdilution
[4] = tested on: intra-macrophagic S. aureus; test: Macrophage infection model (THP-1), intracellular activity; format: cell-based, Staphylococcus aureus; settings: THP-1, MRSA 1814, MRSA 1815, MSSA 1333 and MSSA 1334, 2 x MIC, 24 h after treatment, vs untreated cells
Description: The macrophage infection model was performed using the THP-1 human monocytic cell line (ATCC, Rockville, USA). In brief, cells were cultured in the Roswell Park Memorial Institute (RPMI) medium supplemented with 10% FBS in T75 flasks at 37°C and 5% CO2, and were maintained through weekly transfers within passages 2 to 20. For the assays, THP-1 cells were seeded in 12-well plates and differentiated into macrophages with phorbol myristate acetate (PMA) for 72 h until they reached approximately 80% confluence. Bacterial suspensions, grown overnight in BHI, were prepared and adjusted to an moi of 10, and then introduced to the macrophages. After a 2 h coincubation to facilitate bacterial adherence, the cells were washed and treated with 100 mg/L gentamicin for 1 h. […] Finally, intracellular bacterial cells were enumerated from cellular lysates (following osmotic shock) by plating them onto BHI agar. Infected but untreated cells were used as a control in all experiments. The number of cfu in treated cells was standardized as a percentage of the controls.
(§1) Figure 2. […] Data represent the mean ± SD of three independent experiments. Intracellular cfu counts were normalized relative to untreated cells (depicted by black histograms), and differences between treated and untreated cells, as well as between the two compounds, were assessed using the Mann–Whitney U-test. ***P < 0.001; ****P < 0.0001.

[5] = tested on: S. aureus 1817 (MSSA); test: MIC/MBC by broth microdilution reference method; format: cell-based, Staphylococcus aureus; settings: Staphylococcus aureus, strain 1817, MSSA erythromycin resistant, broth microdilution
[6] = tested on: osteoblasts (MG-63)
Description: (§2) In both models, the viability was assessed using the MTT assay to determine the potential cytotoxicity of antimicrobials on untreated and infected/treated cells. Briefly, an MTT solution (0.5 mg/mL) was added to the cell medium without FBS. After washing with PBS and a 30 min incubation at 37°C, the formazan crystals formed were dissolved in DMSO. Absorbance values at 540 nm were measured using a BioTek Synergy 2 microplate reader.

[7] = tested on: macrophages (THP-1)
Description: as §2

[8] = tested on: S. aureus 1814 (MRSA); test: MIC/MBC by broth microdilution reference method; format: cell-based, Staphylococcus aureus; settings: Staphylococcus aureus, strain 1814, MRSA ciprofloxacin resistant, broth microdilution
[9] = tested on: S. aureus 1333 (MSSA); test: MIC/MBC by broth microdilution reference method; format: cell-based, Staphylococcus aureus; settings: Staphylococcus aureus, strain 1333, MSSA multi-susceptible, broth microdilution
[10] = tested on: all S. aureus isolates; test: MIC/MBC by broth microdilution, summary over all isolates; format: cell-based, Staphylococcus aureus; settings: Staphylococcus aureus; summary over all S. aureus isolates of Table 1; broth microdilution; read-out: MICs for all S. aureus isolates
[11] = tested on: S. aureus 1818 (MSSA); test: MIC/MBC by broth microdilution reference method; format: cell-based, Staphylococcus aureus; settings: Staphylococcus aureus, strain 1818, MSSA multi-susceptible, broth microdilution
[12] = tested on: S. aureus 1816 (MSSA); test: MIC/MBC by broth microdilution reference method; format: cell-based, Staphylococcus aureus; settings: Staphylococcus aureus, strain 1816, MSSA multi-susceptible, broth microdilution
[13] = tested on: intra-osteoblastic S. aureus; test: Osteoblast infection model (MG-63), intracellular activity; format: cell-based, Staphylococcus aureus; settings: MG-63, all four isolates (2 MSSA and 2 MRSA), 2 x MIC, 3 h after treatment, vs untreated cells
Description: The osteoblast infection model was conducted using MG-63 (CRL-1427) osteoblastic cells, following previously published procedures.[19] Briefly, MG-63 cells were cultured at 37°C in a 5% CO2 environment and passaged weekly for up to 20 weeks. The culture medium used was DMEM supplemented with 10% FBS, 25 mM HEPES, 2 mM L-glutamine, with or without antibiotics (100 U/mL penicillin plus 100 mg/L streptomycin). For the assays, MG-63 cells were seeded in 24-well plates until reaching 70%–80% confluence. Bacterial cell suspensions grown overnight in BHI broth were prepared and adjusted to an moi of 50, and then introduced to the osteoblasts. After a 2 h coincubation to facilitate bacterial adhesion, MG-63 cells were rinsed and treated with 100 mg/L gentamicin for 1 h to eliminate extracellular bacterial cells. […] Finally, intracellular bacterial cells were quantified in cellular lysates (following osmotic shock) by plating them onto BHI agar.
as §1, with “1.” for “2.”, “from” for “of”, “U-test. *P < 0.05; **P < 0.01;” for “U-test.”

[14] = tested on: S. aureus; design: method as in ref 19 (Abad et al.); settings: concentrations 10x or 100x respective MICs; ref 19 (Abad et al.); cited from earlier work

**Q.** Which results are given for `C[C@H]1COc2c(N3CCN(C)CC3)c(F)cc3c(=O)c(C(=O)O)cn1c23` [LVX, levofloxacin]?
**A.** MBC ([1]; read-out: MBC): 0.5 µg/mL (≈ 1.38 µM); MIC ([1]; read-out: MIC): 0.5 µg/mL (≈ 1.38 µM); MBC ([2]; read-out: MBC): 0.5 µg/mL (≈ 1.38 µM); MIC ([2]; read-out: MIC): 0.5 µg/mL (≈ 1.38 µM); MBC ([3]; read-out: MBC): 0.5 µg/mL (≈ 1.38 µM); MIC ([3]; read-out: MIC): 0.5 µg/mL (≈ 1.38 µM); effect on intracellular inoculum in macrophages [4]: significantly reducing the intracellular inoculum; MBC ([5]; read-out: MBC): 0.25 µg/mL (≈ 0.692 µM); MIC ([5]; read-out: MIC): 0.25 µg/mL (≈ 0.692 µM); direct cytotoxicity on uninfected osteoblasts (MTT) [6]: did not observe any significant direct cytotoxicity; direct cytotoxicity on uninfected macrophages (MTT) [7]: no significant direct cytotoxicity; MBC ([8]; read-out: MBC): 4 µg/mL (≈ 11.1 µM); MIC ([8]; read-out: MIC): 4 µg/mL (≈ 11.1 µM); MBC ([9]; read-out: MBC): 0.5 µg/mL (≈ 1.38 µM); MIC ([9]; read-out: MIC): 0.5 µg/mL (≈ 1.38 µM); MIC [10]: 0.25 to 4 µg/mL (≈ 0.692 to 11.1 µM); MBC ([11]; read-out: MBC): 0.25 µg/mL (≈ 0.692 µM); MIC ([11]; read-out: MIC): 0.25 µg/mL (≈ 0.692 µM); MBC ([12]; read-out: MBC): 0.25 µg/mL (≈ 0.692 µM); MIC ([12]; read-out: MIC): 0.25 µg/mL (≈ 0.692 µM); effect on intracellular bacterial load in osteoblasts [13]: significantly reduced the bacterial load

**Q.** With `CO[C@H]1/C=C/O[C@@]2(C)Oc3c(C)c(O)c4c(O)c(c(/C=N/N5CCN(C)CC5)c(O)c4c3C2=O)NC(=O)/C(C)=C\C=C\[C@H](C)[C@H](O)[C@@H](C)[C@@H](O)[C@@H](C)[C@H](OC(C)=O)[C@@H]1C` [rifampicin] as the compound, how does the “reduction in intracellular bacteria” value [14] read?
**A.** approximately 54.0%

**Q.** For `CO[C@H]1/C=C/O[C@@]2(C)Oc3c(C)c(O)c4c(O)c(c(/C=N/N5CCN(C6CCCC6)CC5)c(O)c4c3C2=O)NC(=O)/C(C)=C\C=C\[C@H](C)[C@H](O)[C@@H](C)[C@@H](O)[C@@H](C)[C@H](OC(C)=O)[C@@H]1C` [rifapentine], which “reduction in intracellular bacteria” value [14] is on record?
**A.** 45.3%
